Measurements: US20220370385A1, “COMPOSITIONS FOR USE IN INHIBITING SRC KINASE AND TREATING AND PREVENTING ASSOCIATED DISORDERS” (Enzene Biosciences Ltd., priority 2019, published 2022)

Assay: Maximum tolerated dose study, oral gavage
Type: in vivo
Settings: single oral gavage
Procedure: A maximum tolerated dose (MTD) study was carried out with E05. In MTD study, group of 3 male and 3 female rats were dosed at 175 (group 1), 550 (group 2), 1750 (group 3) and 2000 (group 4) mg/kg b. wt.

O=C(O)CCc1ccc(O)c(O)c1 [E05, 3-(3,4-Dihydroxyphenyl) propanoic acid]
0: Morbidity on Experimental Day 1 (Female G1 175 mg/kg b. wt.) | Morbidity on Experimental Day 2 (Female G1 175 mg/kg b. wt.) | Morbidity on Experimental Day 3 (Female G1 175 mg/kg b. wt.) | Morbidity on Experimental Day 4 (Female G1 175 mg/kg b. wt.) | Mortality on Experimental Day 1 (Female G1 175 mg/kg b. wt.) | Mortality on Experimental Day 2 (Female G1 175 mg/kg b. wt.) | Mortality on Experimental Day 3 (Female G1 175 mg/kg b. wt.) | Mortality on Experimental Day 4 (Female G1 175 mg/kg b. wt.) | Morbidity on Experimental Day 1 (Female G2 550 mg/kg b. wt.) | Morbidity on Experimental Day 2 (Female G2 550 mg/kg b. wt.) | Morbidity on Experimental Day 3 (Female G2 550 mg/kg b. wt.) | Morbidity on Experimental Day 4 (Female G2 550 mg/kg b. wt.) | Mortality on Experimental Day 1 (Female G2 550 mg/kg b. wt.) | Mortality on Experimental Day 2 (Female G2 550 mg/kg b. wt.) | Mortality on Experimental Day 3 (Female G2 550 mg/kg b. wt.) | Mortality on Experimental Day 4 (Female G2 550 mg/kg b. wt.) | Morbidity on Experimental Day 1 (Female G3 1750 mg/kg b. wt.) | Morbidity on Experimental Day 2 (Female G3 1750 mg/kg b. wt.) | Morbidity on Experimental Day 3 (Female G3 1750 mg/kg b. wt.) | Morbidity on Experimental Day 4 (Female G3 1750 mg/kg b. wt.) | Mortality on Experimental Day 1 (Female G3 1750 mg/kg b. wt.) | Mortality on Experimental Day 2 (Female G3 1750 mg/kg b. wt.) | Mortality on Experimental Day 3 (Female G3 1750 mg/kg b. wt.) | Mortality on Experimental Day 4 (Female G3 1750 mg/kg b. wt.) | Morbidity on Experimental Day 1 (Female G4 2000 mg/kg b. wt.) | Morbidity on Experimental Day 2 (Female G4 2000 mg/kg b. wt.) | Morbidity on Experimental Day 3 (Female G4 2000 mg/kg b. wt.) | Morbidity on Experimental Day 4 (Female G4 2000 mg/kg b. wt.) | Mortality on Experimental Day 1 (Female G4 2000 mg/kg b. wt.) | Mortality on Experimental Day 2 (Female G4 2000 mg/kg b. wt.) | Mortality on Experimental Day 3 (Female G4 2000 mg/kg b. wt.) | Mortality on Experimental Day 4 (Female G4 2000 mg/kg b. wt.) | Morbidity on Experimental Day 1 (Male G1 175 mg/kg b. wt.) | Morbidity on Experimental Day 2 (Male G1 175 mg/kg b. wt.) | Morbidity on Experimental Day 3 (Male G1 175 mg/kg b. wt.) | Morbidity on Experimental Day 4 (Male G1 175 mg/kg b. wt.) | Mortality on Experimental Day 1 (Male G1 175 mg/kg b. wt.) | Mortality on Experimental Day 2 (Male G1 175 mg/kg b. wt.) | Mortality on Experimental Day 3 (Male G1 175 mg/kg b. wt.) | Mortality on Experimental Day 4 (Male G1 175 mg/kg b. wt.) | Morbidity on Experimental Day 1 (Male G2 550 mg/kg b. wt.) | Morbidity on Experimental Day 2 (Male G2 550 mg/kg b. wt.) | Morbidity on Experimental Day 3 (Male G2 550 mg/kg b. wt.) | Morbidity on Experimental Day 4 (Male G2 550 mg/kg b. wt.) | Mortality on Experimental Day 1 (Male G2 550 mg/kg b. wt.) | Mortality on Experimental Day 2 (Male G2 550 mg/kg b. wt.) | Mortality on Experimental Day 3 (Male G2 550 mg/kg b. wt.) | Mortality on Experimental Day 4 (Male G2 550 mg/kg b. wt.) | Morbidity on Experimental Day 1 (Male G3 1750 mg/kg b. wt.) | Morbidity on Experimental Day 2 (Male G3 1750 mg/kg b. wt.) | Morbidity on Experimental Day 3 (Male G3 1750 mg/kg b. wt.) | Morbidity on Experimental Day 4 (Male G3 1750 mg/kg b. wt.) | Mortality on Experimental Day 1 (Male G3 1750 mg/kg b. wt.) | Mortality on Experimental Day 2 (Male G3 1750 mg/kg b. wt.) | Mortality on Experimental Day 3 (Male G3 1750 mg/kg b. wt.) | Mortality on Experimental Day 4 (Male G3 1750 mg/kg b. wt.) | Morbidity on Experimental Day 1 (Male G4 2000 mg/kg b. wt.) | Morbidity on Experimental Day 2 (Male G4 2000 mg/kg b. wt.) | Morbidity on Experimental Day 3 (Male G4 2000 mg/kg b. wt.) | Morbidity on Experimental Day 4 (Male G4 2000 mg/kg b. wt.) | Mortality on Experimental Day 1 (Male G4 2000 mg/kg b. wt.) | Mortality on Experimental Day 2 (Male G4 2000 mg/kg b. wt.) | Mortality on Experimental Day 3 (Male G4 2000 mg/kg b. wt.) | Mortality on Experimental Day 4 (Male G4 2000 mg/kg b. wt.)
